Consider four molecules from PMC12326358, “Effect of Quantitative Structural Properties and Drug Formulation in Four Cannabinoids (Cannabidiol, Cannabigerol, Cannabichromene, and Cannabinol) on Their Lymphatic Transport after Enteral Administration in Rats” (Molecular Pharmaceutics, 2025).

A short description of data set [1]: Lymphatic transport studies in anesthetized mesenteric lymph duct cannulated rats. As to conditions: for FRL, relative bioavailability via lymph / bioavailability / Kp: intraduodenal, mean ± SD; for FRL, relative bioavailability via lymph: FRL=FAL/F; for bioavailability: F, total absolute bioavailability, sum of FAL and FAP; for Kp: Lymph/serum AUC ratio. As for the experimental part:
Anesthetized mesenteric lymph duct cannulated rat model was used for the lymphatic transport measurement as previously described with slight modifications. Briefly, rats were left on normal diet and given 1 mL of olive oil 1 h prior to the surgery to visualize the mesenteric lymph (milky white color). They were anesthetized with intramuscular xylazine 5 mg/kg and ketamine 100 mg/kg after a rapid isoflurane induction. A transverse laparotomy was performed. […] The catheter was fixed in place with two to three drops of tissue adhesive (Histoacryl, B. Braun Surgical, S.A., Spain). A duodenal catheter was also placed (polyethylene, 0.97 mm O.D., 0.58 mm I.D.) via a small duodenotomy and fixed with tissue adhesive. The abdominal wall was sutured in two layers, with both catheters leaving the abdominal cavity through the right flank. At the end of the procedure, the right jugular vein was cannulated for blood sampling.
The rats were then placed on heated pads and covered with blankets to prevent heat loss. Cannabinoids in oil solution or nanoemulsion were then dosed slowly via duodenal catheter over 30 min. The administered dose was 10 mg of CBD and 15 mg of CBG, CBC and CBN (volume 1 mL). Whole lymph was collected in regularly changed Eppendorf tubes from the time the dosing started. When the dosing was finished, continuous hydration with normal saline at a rate of 3 mL/h intraduodenally followed using an infusion pump (Perfusor compactplus, B. Braun Melsungen AG, Germany). Anesthesia was maintained throughout the rest of the experiment and additional ketamine intramuscular boluses were given whenever necessary. Eppendorf tubes were changed hourly and systemic blood was drawn at the same time points. Blood samples were centrifuged (4500 rpm for 10 min) and serum was extracted. Lymph volume was measured gravimetrically and the samples were further processed without additional adjustment. All samples were stored in −80 °C until analysis. Laboratory was unaware of animal assignment to the particular experimental groups (laboratory blinding).
(§1) Serum and lymph concentrations in all studies were dose-normalized to 1 mg/kg prior to further calculations. AUC values were determined using linear trapezoidal rule. Exact actual sampling times were used for this purpose. Scheduled sampling times were used for mean concentration plotting in the graphs. PK-solver add-on for MS Excel was used for all basic pharmacokinetic calculations. GraphPad Prism version 10.2.2 (GraphPad Software, San Diego, CA, USA) was used for all statistical analyses and graph plotting. Unpaired Student’s t test was used to compare pharmacokinetic and lymphatic transport parameters between the experimental groups. Level of significance was set to p < 0.05.
(§2) Lymphatic transport parameters were defined and calculated as previously described. , Briefly, absolute bioavailability via lymph (FAL) was defined as percentage of administered drug dose absorbed into the lymph. It was determined directly from lymph volume and drug concentration in lymph duct cannulated rats. Absolute bioavailability via portal vein (FAP) was analogically defined as percentage of administered drug dose reaching the systemic circulation after direct absorption into blood. It was calculated using equation 1 FAP=AUCent/AUCiv where AUCent is the area under the dose-normalized blood concentration–time curve after enteral dosing in lymph duct cannulated (i.e., lymph deprived) rats and AUCiv is the respective parameter in a separate intravenously dosed group. Total absolute bioavailability (F) in lymph duct cannulated rats was calculated as a sum of FAL and FAP. In normal animals with no lymph duct cannulation, F was calculated using standard formula for oral bioavailability: 2 F=AUCpo/AUCiv Relative bioavailability via lymph (FRL) was defined as the percentage of systemically available drug that was absorbed via lymph. It was calculated using the equation 3 FRL=FAL/F

The nature of data set [2]: Pharmacokinetic studies (oral and intravenous dosing) in jugular vein cannulated rats. As to conditions: for AUC(0-inf): AUC0-inf; for bioavailability: F0-inf (absolute oral bioavailability). As for the experimental part:
Absolute oral bioavailability and other pharmacokinetic parameters were determined in a series of two-period, crossover studies, where the cannabinoids were administered intravenously in the first period, and orally in the second. Both jugular veins were cannulated (3 Fr polyurethane catheter, Instech Laboratories, Plymouth Meeting, USA). One catheter was used for intravenous dosing, and the second one was used for repetitive blood sampling in order to avoid sampling cannula contamination with highly concentrated intravenous drug solution. The anesthesia was performed using a rapid inhalational induction with isoflurane (IsoFlo, Zoetis, Czech Republic) followed by intramuscular injection of ketamine 100 mg/kg (Narkamon, Bioveta a.s., Czech Republic) and xylazine 5 mg/kg (Rometar, Bioveta a.s., Czech Republic). After a three-day recovery period, the rats were intravenously dosed with the particular cannabinoid (1 mg of CBD, 1.5 mg of the other three cannabinoids in the form of nanoemulsion, volume 100 μL). Systemic blood (100 μL) was drawn at 5, 15, and 30 min and at 1, 2, 4, 6, 8, 10, and 24 h(s) postdose. After a two-day wash-out period, the dosing via oral gavage followed (10 mg of CBD, 15 mg of the other three cannabinoids in the form of nanoemulsion, volume 1 mL). Systemic blood (100 μL) was drawn at 0 (predose), 0.5, 1, 2, 3, 4, 5, 6, 8, 10, and 24 h(s). Blood samples were centrifuged (4500 rpm for 10 min) and serum was extracted and stored in −80 °C until analysis. The laboratory was unaware of animal assignment to particular experimental groups (laboratory blinding).
as §1, §2

The mark [3] stands for this setting: nanoemulsion compared to oil solution, lymph duct-cannulated rats.
Setting [4] is: nanoemulsion, lymph duct-cannulated rats.
Where [5] appears, read: oil solution, lymph duct-cannulated rats.
[6] abbreviates: rat, in vivo, nanoemulsion, lymph duct-cannulated rats.
Where [7] appears, read: rat, in vivo, oil solution, lymph duct-cannulated rats.
[8] abbreviates: rat, in vivo, iv, 1.5 mg, nanoemulsion, rats, serum, dose-normalized to 1 mg/kg, mean ± SD.
[9] abbreviates: rat, in vivo, iv, 1.5 mg, T1/2, nanoemulsion, rats, mean ± SD.
Setting [10] is: rat, in vivo, po, nanoemulsion, rats, serum, dose-normalized to 1 mg/kg, mean ± SD.
Setting [11] is: rat, in vivo, po, oil solution, rats, serum, dose-normalized to 1 mg/kg, mean ± SD.
The mark [12] stands for this setting: rat, in vivo, po, nanoemulsion, rats, 10 mg CBD, 15 mg others, serum, dose-normalized to 1 mg/kg, mean ± SD.
Setting [13] is: rat, in vivo, po, oil solution, rats, 10 mg CBD, 15 mg other cannabinoids, serum, dose-normalized to 1 mg/kg, mean ± SD.
The mark [14] stands for this setting: rat, in vivo, po, nanoemulsion, rats, mean ± SD.
Setting [15] is: rat, in vivo, po, oil solution, rats, mean ± SD.
Setting [16] is: rat, in vivo, po, T1/2, nanoemulsion, rats, mean ± SD.
The mark [17] stands for this setting: rat, in vivo, po, T1/2, oil solution, rats, mean ± SD.

Several values for one entry are separate records, joined by “and”; a condition that tells them apart may be missing. Identical values can stand only once. Entries after “also recorded” stand apart in the source; their conditions may differ.

Consider `CCCCCc1cc(O)c2c(c1)OC(C)(CCC=C(C)C)C=C2` (stereo not drawn) [CBC, cannabichromene], for which the “drop of relative bioavailability via lymph (FRL)” value in data set [1] (setting [3]) is on record as “did not reach statistical significance”. Moreover, in data set [1] (setting [3]), the “increase in absolute bioavailability via lymph (FAL)” value (“increase … (FAL)” for short) turned out to be 3 fold. Further, the “increase in absolute bioavailability via portal vein (FAP)” value (“increase … (FAP)” below) in data set [1] (setting [3]) is listed as 8 fold. The “FRL, relative bioavailability via lymph” value was 47% and 47 ± 14% in data set [1] (setting [4]); 63 ± 17% in data set [1] (setting [5]). Moreover, the bioavailability in data set [1] (setting [6]) turned out to be 29 ± 7%; in data set [1] (setting [7]) it was 6.6 ± 3.9%; in data set [2] (setting [14]), 18 ± 5%; in data set [2] (setting [15]), 34 ± 18%. Also, the figures for the Kp in data set [1] (setting [6]) and in data set [1] (setting [7]) were 530 ± 239 and 1260 ± 676, respectively. The Vd in data set [2] (rat, in vivo, iv, 1.5 mg) amounted to 11 ± 2.2 L/kg. This molecule had a clearance in data set [2] (rat, in vivo, iv, 1.5 mg) of 6 L/h/kg. Further, the AUC(0-inf) was found to be 0.64 ± 0.085 µg·h/mL in data set [2] (setting [8]), 0.117 ± 0.033 µg·h/mL in data set [2] (setting [10]) and 0.031 ± 0.023 µg·h/mL in data set [2] (setting [11]). Further, the maximum concentration (Cmax) was determined as 0.935 ± 0.147 µg/mL in data set [2] (setting [8]), 0.012 ± 0.002 µg/mL in data set [2] (setting [12]) and 0.0026 ± 0.0015 µg/mL in data set [2] (setting [13]). The half-life in data set [2] (setting [9]) is 2.2 ± 0.4 h; in data set [2] (setting [16]) it was 5.8 ± 1.9 h; in data set [2] (setting [17]) it was 13 ± 19 h. Further, the values for the Tmax in data set [2] (setting [14]) and in data set [2] (setting [15]) were 3.6 ± 1.9 h and 6 ± 1.3 h, respectively.

In the case of `C=C(C)[C@@H]1CCC(C)=C[C@H]1c1c(O)cc(CCCCC)cc1O` [CBD, cannabidiol], the “drop of relative bioavailability via lymph (FRL)” value in data set [1] (setting [3]) was 74%. Further, in data set [1] (setting [3]), the “increase … (FAL)” value is on record as “did not increase; also recorded: no increase”. Also, the “increase … (FAP)” value in data set [1] (setting [3]) is on record as 11 fold. Also, the “FRL, relative bioavailability via lymph” value in data set [1] (setting [4]) was 13% and 13 ± 8 %; in data set [1] (setting [5]), 50 ± 12%. For the same molecule, the bioavailability in data set [1] (setting [6]) turned out to be 24 ± 9%; in data set [1] (setting [7]) it was 4 ± 1.5%; in data set [2] (setting [14]) it was 45 ± 18%; in data set [2] (setting [15]), 52 ± 19%. Besides, the Kp in data set [1] (setting [6]) was 100 ± 60; in data set [1] (setting [7]) it was 699 ± 333. Moreover, the total exposure AUC(0-inf) worked out at 0.256 ± 0.038 µg·h/mL in data set [2] (setting [10]) and 0.205 ± 0.057 µg·h/mL in data set [2] (setting [11]). Moreover, the highest level in data set [2] (setting [13]) (Cmax) was 0.027 ± 0.01 µg/mL. The half-life is 4.4 ± 0.8 h in data set [2] (setting [16]) and 4.8 ± 0.8 h in data set [2] (setting [17]). Further, the Tmax in data set [2] (setting [14]) is 3.2 ± 0.9 h; in data set [2] (setting [15]), 6.8 ± 1.9 h.

Regarding `CCCCCc1cc(O)c(C/C=C(\C)CCC=C(C)C)c(O)c1` [CBG, cannabigerol], in data set [1] (rat, in vivo), the “drop of relative bioavailability via lymph (FRL)” value amounted to 75%, the “increase … (FAL)” value was found to be 8 fold and the “increase … (FAP)” value stood at 71 fold. In data set [2] (rat, in vivo, iv, 1.5 mg), this molecule had a Vd of 7.3 ± 2.3 L/kg, a clearance of 5.9 L/h/kg, an AUC(0-inf) of 0.716 ± 0.136 µg·h/mL and a Cmax of 1.19 ± 0.286 µg/mL. The same molecule gave a half-life in data set [2] (rat, in vivo, iv, 1.5 mg, T1/2) of 2.5 ± 1.6 h. In data set [2] (rat, in vivo, po), this molecule yielded a T1/2 of 5.1 ± 4.1 h. Further, the half-life in data set [2] (rat, in vivo, po, T1/2) is 3.1 ± 1.3 h.

For `CCCCCc1cc(O)c2c(c1)OC(C)(C)c1ccc(C)cc1-2` [CBN, cannabinol], in data set [1] (setting [3]), the “drop of relative bioavailability via lymph (FRL)” value amounted to 48%. In addition, the “increase … (FAL)” value in data set [1] (setting [3]) is reported as 3 fold. Also, the “increase … (FAP)” value in data set [1] (setting [3]) was found to be 13 fold. The “FRL, relative bioavailability via lymph” value in data set [1] (setting [4]) was 36% and 36 ± 20 %; in data set [1] (setting [5]) it was 69 ± 13%. The bioavailability was determined as 29 ± 10% in data set [1] (setting [6]), 5.3 ± 2% in data set [1] (setting [7]), 9% in data set [2] (setting [14]) and 20 ± 7% in data set [2] (setting [15]). The Kp in data set [1] (setting [6]) was 274 ± 231; in data set [1] (setting [7]), 976 ± 519. In addition, the T1/2 in data set [2] (nanoemulsion, IV, rats, 1.5 mg, mean ± SD) was 5.3 ± 1.8 h. The “F0-inf (absolute oral bioavailability)” value in data set [2] (nanoemulsion, PO, rats, mean ± SD) was 9.2 ± 2.6%. For the same molecule, the Vd in data set [2] (rat, in vivo, iv, 1.5 mg) stood at 6.5 ± 1.6 L/kg. The molecule further had a clearance in data set [2] (rat, in vivo, iv, 1.5 mg) of 3 L/h/kg. Further, the AUC(0-inf) came to 1.04 ± 0.212 µg·h/mL in data set [2] (setting [8]), 0.091 ± 0.019 µg·h/mL in data set [2] (setting [10]) and 0.148 ± 0.057 µg·h/mL in data set [2] (setting [11]). Besides, the Cmax in data set [2] (setting [8]) is 1.23 ± 0.252 µg/mL; in data set [2] (setting [12]) it was 0.012 ± 0.003 µg/mL; in data set [2] (setting [13]), 0.0153 ± 0.0046 µg/mL. Further, the half-life in data set [2] (setting [9]) is 5 h; in data set [2] (setting [16]), 3.5 ± 1.1 h; in data set [2] (setting [17]), 4.2 ± 1.7 h. Also, the Tmax in data set [2] (setting [14]) worked out at 2.2 ± 0.6 h; in data set [2] (setting [15]), 6.5 ± 1.2 h.

What is called bioavailability is dose-corrected exposure relative to a reference, in per cent. High values mean much systemic uptake, low ones little systemic uptake. By Kp is commonly meant the ratio of the level in a tissue or fluid to that in plasma or blood. One may read the AUC(0-inf) as the area under the concentration-time curve extrapolated to infinity. Read a high AUC(0-inf) as high exposure. One may read the Cmax as the maximum level reached in the sampled fluid or tissue. Usually half-life stands for the time needed for the level to fall by half in the phase considered. A low value points to rapid decline. Broadly, the Tmax is the time at which the peak concentration occurs.
